Measurements published in US20260345517A1, “DOSAGE REGIMENS FOR TREATING STARGARDT DISEASE” (Alkeus Pharmaceuticals, Inc., priority 2024, published 2026).

Assay: TEASE-1: safety and adverse events
Type: in vivo, human
Experimental: The Tolerability and Effects of gildeuretinol acetate in Stargardt Disease (Clinical trial group 1 also known as TEASE-1) was a 24-month, multicenter, double-masked, placebo-controlled trial designed to evaluate the efficacy and safety of daily oral gildeuretinol acetate in slowing the growth of atrophic retinal lesions in Stargardt disease patients. The trial was conducted at multiple sites in the United States (NCT02402660).
Patients 12 years or older, clinically diagnosed with Stargardt disease, with at least one ABCA4 mutation, at least one eye presenting with well-demarcated areas of reduced fundus autofluorescence, and with any visual acuity, were eligible.
Patients were randomized to gildeuretinol acetate 14 mg capsules, gildeuretinol acetate 24 mg capsules, or placebo capsules, to be taken once daily for one year. After one year, 50% of randomly selected patients receiving placebo were crossed over in a 1:1 ratio to gildeuretinol acetate 14 mg capsules or gildeuretinol acetate 24 mg capsules for a second year.
Gildeuretinol acetate and placebo capsules were identical appearing capsules. Patients were advised to avoid vitamin A-containing supplements and liver-based products. Fruits and vegetables contain beta-carotene, not preformed vitamin A, and could be consumed without limitation. Trial visits occurred at 8 weeks and 6, 12, 18, and 24 months following screening and randomization.

For `CC(=O)OC/C=C(C)/C=C/C=C(C)/C=C/C1=C(C)CCCC1(C)C` [gildeuretinol acetate, C20-D3-retinol acetate], the Inflammation (24 mg, N = 15) was 0 patients (%), the Influenza (24 mg, N = 15) was 1 (6.7) patients (%) and the Insomnia (24 mg, N = 15) was 0 patients (%). For the same molecule, the Intracranial pressure increased (24 mg, N = 15) was 1 (6.7) patients (%), the Irritability (24 mg, N = 15) was 0 patients (%) and the Jaw operation (24 mg, N = 15) was 1 (6.7) patients (%). The Knee arthroplasty (24 mg, N = 15) was 0 patients (%), the Laryngitis (24 mg, N = 15) was 0 patients (%) and the Lip swelling (24 mg, N = 15) was 0 patients (%). The “Low density lipoprotein increased” value (24 mg, N = 15) was 0 patients (%), the Muscle spasms (24 mg, N = 15) was 0 patients (%) and the Muscle strain (24 mg, N = 15) was 0 patients (%). For the same molecule, the Musculoskeletal pain (24 mg, N = 15) was 1 (6.7) patients (%), the Nasopharyngitis (24 mg, N = 15) was 3 (20.0) patients (%) and the Nausea (24 mg, N = 15) was 1 (6.7) patients (%). For the same molecule, the Neck pain (24 mg, N = 15) was 0 patients (%), the Nephrolithiasis (24 mg, N = 15) was 0 patients (%) and the Nerve compression (24 mg, N = 15) was 0 patients (%). The Neuralgia (24 mg, N = 15) was 0 patients (%), the Obsessive-compulsive disorder (24 mg, N = 15) was 0 patients (%) and the Oropharyngeal pain (24 mg, N = 15) was 3 (20.0) patients (%). The Osteoporosis (24 mg, N = 15) was 1 (6.7) patients (%), the Pain (24 mg, N = 15) was 0 patients (%) and the Pain in extremity (24 mg, N = 15) was 2 (13.3) patients (%). For the same molecule, the Pain in jaw (24 mg, N = 15) was 0 patients (%), the Peripheral coldness (24 mg, N = 15) was 0 patients (%) and the Pharyngitis streptococcal (24 mg, N = 15) was 0 patients (%). The Photophobia (24 mg, N = 15) was 0 patients (%), the Photopsia (24 mg, N = 15) was 0 patients (%) and the Plantar fasciitis (24 mg, N = 15) was 0 patients (%). The Pleurisy (24 mg, N = 15) was 0 patients (%), the Pneumonia (24 mg, N = 15) was 0 patients (%) and the Premenstrual syndrome (24 mg, N = 15) was 1 (6.7) patients (%). The Punctate keratitis (24 mg, N = 15) was 0 patients (%), the Pyrexia (24 mg, N = 15) was 1 (6.7) patients (%) and the Radius fracture (24 mg, N = 15) was 0 patients (%). The Rash (24 mg, N = 15) was 0 patients (%), the Rotator cuff syndrome (24 mg, N = 15) was 1 (6.7) patients (%) and the Sialoadenitis (24 mg, N = 15) was 0 patients (%). The Sinus congestion (24 mg, N = 15) was 1 (6.7) patients (%), the Sinusitis (24 mg, N = 15) was 0 patients (%) and the “Sjogren's syndrome” value (24 mg, N = 15) was 0 patients (%). For the same molecule, the Skin infection (24 mg, N = 15) was 0 patients (%), the Subdural haematoma (24 mg, N = 15) was 0 patients (%) and the Syncope (24 mg, N = 15) was 1 (6.7) patients (%). The Tendonitis (24 mg, N = 15) was 0 patients (%), the Thoracic outlet syndrome (24 mg, N = 15) was 0 patients (%) and the Tongue dry (24 mg, N = 15) was 0 patients (%). The Tooth abscess (24 mg, N = 15) was 1 (6.7) patients (%), the Tooth extraction (24 mg, N = 15) was 1 (6.7) patients (%) and the Toothache (24 mg, N = 15) was 0 patients (%). The “Upper respiratory tract infection” value (24 mg, N = 15) was 1 (6.7) patients (%), the Vision blurred (24 mg, N = 15) was 0 patients (%) and the Visual field defect (24 mg, N = 15) was 0 patients (%). The Visual impairment (24 mg, N = 15) was 0 patients (%), the “Vitamin B12 deficiency” value (24 mg, N = 15) was 0 patients (%) and the “Vitamin D decreased” value (24 mg, N = 15) was 1 (6.7) patients (%). For the same molecule, the Vitreous floaters (24 mg, N = 15) was 0 patients (%), the Vulvovaginal candidiasis (24 mg, N = 15) was 1 (6.7) patients (%) and the Wrist fracture (24 mg, N = 15) was 0 patients (%). For the same molecule, the Xanthelasma (24 mg, N = 15) was 1 (6.7) patients (%), the elevated intracranial pressure (24 mg, one patient) was “Elevated intracranial pressure was measured” and the “papilledema grade (modified Frisen scale) with elevated intracranial pressure” value (24 mg, one patient, resolved upon temporary interruption and acetazolamide) was “Grade 1”. The Abdominal discomfort (crossover, N = 10) was 1 (10.0) patients (%), the Abdominal distension (crossover, N = 10) was 0 patients (%) and the Abdominal pain upper (crossover, N = 10) was 0 patients (%). For the same molecule, the Abnormal dreams (crossover, N = 10) was 0 patients (%), the “Adverse events, Overall” value (crossover, N = 10) was 8 (80) patients (%) and the Alanine aminotransferase increased (crossover, N = 10) was 1 (10.0) patients (%). The Alopecia (crossover, N = 10) was 0 patients (%), the Ankle fracture (crossover, N = 10) was 0 patients (%) and the Arthralgia (crossover, N = 10) was 1 (10.0) patients (%). The Arthritis (crossover, N = 10) was 1 (10.0) patients (%), the Aspartate aminotransferase increased (crossover, N = 10) was 1 (10.0) patients (%) and the Back injury (crossover, N = 10) was 0 patients (%). For the same molecule, the Back pain (crossover, N = 10) was 0 patients (%), the Blepharospasm (crossover, N = 10) was 1 (10.0) patients (%) and the Blood cholesterol increased (crossover, N = 10) was 0 patients (%). For the same molecule, the Blood creatinine increased (crossover, N = 10) was 0 patients (%), the Blood iron decreased (crossover, N = 10) was 0 patients (%) and the Blood pressure increased (crossover, N = 10) was 0 patients (%). For the same molecule, the Blood triglycerides increased (crossover, N = 10) was 0 patients (%), the Bowel movement irregularity (crossover, N = 10) was 0 patients (%) and the Bronchitis (crossover, N = 10) was 0 patients (%). For the same molecule, the Cartilage injury (crossover, N = 10) was 0 patients (%), the Conjunctival laceration (crossover, N = 10) was 0 patients (%) and the Conjunctivitis (crossover, N = 10) was 0 patients (%). The Constipation (crossover, N = 10) was 0 patients (%), the Cough (crossover, N = 10) was 0 patients (%) and the Death (crossover, N = 10) was 0 patients (%). For the same molecule, the Depression (crossover, N = 10) was 0 patients (%), the Diarrhoea (crossover, N = 10) was 1 (10.0) patients (%) and the Diplopia (crossover, N = 10) was 0 patients (%). For the same molecule, the Dry eye (crossover, N = 10) was 0 patients (%), the Dry mouth (crossover, N = 10) was 0 patients (%) and the Dry skin (crossover, N = 10) was 0 patients (%). For the same molecule, the Ear discomfort (crossover, N = 10) was 0 patients (%), the Ear infection (crossover, N = 10) was 1 (10.0) patients (%) and the Ear pain (crossover, N = 10) was 0 patients (%). For the same molecule, the Eczema (crossover, N = 10) was 1 (10.0) patients (%), the Electrocardiogram abnormal (crossover, N = 10) was 1 (10.0) patients (%) and the Erythema (crossover, N = 10) was 0 patients (%). For the same molecule, the Eye irritation (crossover, N = 10) was 0 patients (%), the Eye pain (crossover, N = 10) was 0 patients (%) and the Eye pruritus (crossover, N = 10) was 0 patients (%). For the same molecule, the Face injury (crossover, N = 10) was 0 patients (%), the Faeces soft (crossover, N = 10) was 0 patients (%) and the Fall (crossover, N = 10) was 0 patients (%). The Gastroenteritis (crossover, N = 10) was 1 (10.0) patients (%), the Gastroenteritis viral (crossover, N = 10) was 0 patients (%) and the Hair texture abnormal (crossover, N = 10) was 0 patients (%). For the same molecule, the Hand fracture (crossover, N = 10) was 0 patients (%), the Headache (crossover, N = 10) was 0 patients (%) and the Herpes zoster (crossover, N = 10) was 0 patients (%). The Hordeolum (crossover, N = 10) was 0 patients (%), the Hypertension (crossover, N = 10) was 0 patients (%) and the Hypobarism (crossover, N = 10) was 0 patients (%). The Hypothyroidism (crossover, N = 10) was 0 patients (%), the Hysterectomy (crossover, N = 10) was 0 patients (%) and the Inflammation (crossover, N = 10) was 0 patients (%). For the same molecule, the Influenza (crossover, N = 10) was 0 patients (%), the Insomnia (crossover, N = 10) was 0 patients (%) and the Intracranial pressure increased (crossover, N = 10) was 0 patients (%). For the same molecule, the Irritability (crossover, N = 10) was 0 patients (%), the Jaw operation (crossover, N = 10) was 0 patients (%) and the Knee arthroplasty (crossover, N = 10) was 0 patients (%). The Laryngitis (crossover, N = 10) was 0 patients (%), the Lip swelling (crossover, N = 10) was 0 patients (%) and the “Low density lipoprotein increased” value (crossover, N = 10) was 0 patients (%). For the same molecule, the Muscle spasms (crossover, N = 10) was 0 patients (%), the Muscle strain (crossover, N = 10) was 0 patients (%) and the Musculoskeletal pain (crossover, N = 10) was 0 patients (%). For the same molecule, the Nasopharyngitis (crossover, N = 10) was 1 (10.0) patients (%), the Nausea (crossover, N = 10) was 0 patients (%) and the Neck pain (crossover, N = 10) was 0 patients (%). The Nephrolithiasis (crossover, N = 10) was 1 (10.0) patients (%), the Nerve compression (crossover, N = 10) was 0 patients (%) and the Neuralgia (crossover, N = 10) was 0 patients (%). For the same molecule, the Obsessive-compulsive disorder (crossover, N = 10) was 0 patients (%), the Oropharyngeal pain (crossover, N = 10) was 1 (10.0) patients (%) and the Osteoporosis (crossover, N = 10) was 0 patients (%). For the same molecule, the Pain (crossover, N = 10) was 0 patients (%), the Pain in extremity (crossover, N = 10) was 0 patients (%) and the Pain in jaw (crossover, N = 10) was 0 patients (%). For the same molecule, the Peripheral coldness (crossover, N = 10) was 0 patients (%), the Pharyngitis streptococcal (crossover, N = 10) was 0 patients (%) and the Photophobia (crossover, N = 10) was 0 patients (%). For the same molecule, the Photopsia (crossover, N = 10) was 0 patients (%), the Plantar fasciitis (crossover, N = 10) was 0 patients (%) and the Pleurisy (crossover, N = 10) was 1 (10.0) patients (%). The Pneumonia (crossover, N = 10) was 1 (10.0) patients (%), the Premenstrual syndrome (crossover, N = 10) was 0 patients (%) and the Punctate keratitis (crossover, N = 10) was 0 patients (%). The Pyrexia (crossover, N = 10) was 0 patients (%), the Radius fracture (crossover, N = 10) was 0 patients (%) and the Rash (crossover, N = 10) was 1 (10.0) patients (%). The Rotator cuff syndrome (crossover, N = 10) was 0 patients (%), the Sialoadenitis (crossover, N = 10) was 0 patients (%) and the Sinus congestion (crossover, N = 10) was 0 patients (%). The Sinusitis (crossover, N = 10) was 0 patients (%), the “Sjogren's syndrome” value (crossover, N = 10) was 0 patients (%) and the Skin infection (crossover, N = 10) was 0 patients (%). For the same molecule, the Subdural haematoma (crossover, N = 10) was 0 patients (%), the Syncope (crossover, N = 10) was 0 patients (%) and the Tendonitis (crossover, N = 10) was 0 patients (%). For the same molecule, the Thoracic outlet syndrome (crossover, N = 10) was 0 patients (%), the Tongue dry (crossover, N = 10) was 0 patients (%) and the Tooth abscess (crossover, N = 10) was 0 patients (%). The Tooth extraction (crossover, N = 10) was 0 patients (%), the Toothache (crossover, N = 10) was 0 patients (%) and the “Upper respiratory tract infection” value (crossover, N = 10) was 2 (20.0) patients (%). For the same molecule, the Vision blurred (crossover, N = 10) was 1 (10.0) patients (%), the Visual field defect (crossover, N = 10) was 1 (10.0) patients (%) and the Visual impairment (crossover, N = 10) was 0 patients (%). For the same molecule, the “Vitamin B12 deficiency” value (crossover, N = 10) was 0 patients (%), the “Vitamin D decreased” value (crossover, N = 10) was 0 patients (%) and the Vitreous floaters (crossover, N = 10) was 1 (10.0) patients (%). The Vulvovaginal candidiasis (crossover, N = 10) was 0 patients (%), the Wrist fracture (crossover, N = 10) was 0 patients (%) and the Xanthelasma (crossover, N = 10) was 0 patients (%).
